The values below come from ChEMBL document CHEMBL1201862, “PubChem BioAssay data set” (2004).

The EC50 is the concentration giving half of the maximal effect. The term IC50 denotes the concentration that gives 50% inhibition. What is called CC50 is the concentration that lowers cell viability or growth by half. A word on the AC50: it is the midpoint of the concentration-response curve, whichever way the signal moves.

Active and inactive are the calls of the source.

A short description of assay [1]: Luminescence Cell-Based Dose Retest to Confirm Activators of 5'UTR Stem-Loop Driven Alpha-Synuclein mRNA Translation in H4 Neuroglioblastoma Cells. [Related pubchem assays (depositor defined):AID1813, AID1829]. The assay is classed as functional.
The nature of assay [2]: Luminescence Cell-Based Dose Response HTS to Identify Activators of 5'UTR Stem-Loop Driven Prion Protein mRNA Translation in H4-C Neuroglioblastoma Cells. [Related pubchem assays: 1829 (Project Summary), 1814 (Primary HTS)]. The assay is classed as functional.
Assay [3] is described as follows: Luminescence Cell-Based Dose Response HTS to Identify Activators of Luciferase Translation or Activity in H4-C Neuroglioblastoma Cells. [Related pubchem assays: 1829 (Project Summary), 1814 (Primary HTS)]. In kind it is functional.
Assay [4] is described as follows: Luminescence Cell-Based Dose Response HTS to Identify Activators of Luciferase Translation or Activity in H4 […] Cells. [Related pubchem assays: 1829 (Project Summary), 1814 (Primary HTS)]. In kind it is functional.
The test system of the next assay is H4. As to the kind of experiment: Luminescence Cell-Based Dose Response HTS to Identify Activators of 5'UTR Stem-Loop Driven Prion Protein mRNA Translation in H4 Neuroglioblastoma Cells. [Related pubchem assays: 1829 (Project Summary), 1814 (Primary HTS)]. In kind it is functional. To be noted: Homo sapiens.
A short description of assay [5]: Luminescence Cell-Based Dose Confirmation HTS to Identify Activators of 5'UTR Stem-Loop Driven Alpha-Synuclein mRNA Translation in H4 Neuroglioblastoma Cells. [Related pubchem assays: 1829 (Project Summary), 1814 (Primary HTS)]. In kind it is functional.
The next assay concerns the target T1, Coagulation factor XII (Homo sapiens, UniProt P00748).
T1 sequence (P00748 whole entry): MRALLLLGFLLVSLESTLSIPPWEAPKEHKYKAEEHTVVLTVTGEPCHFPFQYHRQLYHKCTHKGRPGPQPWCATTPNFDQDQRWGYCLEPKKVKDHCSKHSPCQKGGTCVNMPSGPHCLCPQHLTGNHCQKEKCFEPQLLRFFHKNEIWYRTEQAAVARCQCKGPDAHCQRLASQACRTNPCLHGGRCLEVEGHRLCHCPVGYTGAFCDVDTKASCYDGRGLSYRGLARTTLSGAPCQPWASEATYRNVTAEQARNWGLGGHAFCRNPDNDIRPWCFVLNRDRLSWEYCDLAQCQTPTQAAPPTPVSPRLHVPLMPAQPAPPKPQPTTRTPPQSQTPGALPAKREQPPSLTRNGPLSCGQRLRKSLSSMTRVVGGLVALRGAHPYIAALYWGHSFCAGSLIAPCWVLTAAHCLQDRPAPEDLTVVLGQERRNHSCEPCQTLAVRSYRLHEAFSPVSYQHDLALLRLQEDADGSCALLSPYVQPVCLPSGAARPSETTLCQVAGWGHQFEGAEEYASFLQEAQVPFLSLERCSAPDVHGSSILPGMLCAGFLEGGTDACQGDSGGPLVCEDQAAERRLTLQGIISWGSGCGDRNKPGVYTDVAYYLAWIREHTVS
The experiment in a line: activated coagulation factor XII inhibitor potency, concentration-effect curve, cell-free (AID 716). The assay is classed as functional.

Assay [6] deals with T2, Ubiquitin-conjugating enzyme E2 N (Homo sapiens, UniProt P61088).
T2 sequence (P61088 whole entry): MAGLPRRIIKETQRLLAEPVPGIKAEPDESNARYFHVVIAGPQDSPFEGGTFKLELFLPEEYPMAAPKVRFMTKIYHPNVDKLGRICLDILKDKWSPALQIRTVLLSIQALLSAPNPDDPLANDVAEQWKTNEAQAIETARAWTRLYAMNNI
The assay is classed as functional.

The next assay deals with Protein Rev (Human immunodeficiency virus type 1 group M subtype B (isolate HXB2)(HIV-1), UniProt P04618). The experiment in a line: blockers of HIV Rev/RRE RNA complex – biochemical, fluorescence polarization, HIV-1, dose response (AID 434976). More on the design: species or system Human immunodeficiency virus 1. (Fluorescence polarisation rises when a labelled molecule tumbles more slowly, as on binding a larger partner.)

The nature of assay [7]: viability of PTEN-deleted HCT116 cells – cell-based, HCT116 PTEN knockout, dose response (AID 1047).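 Also: HCT116 colon tumor cells with PTEN knocked out; cells exposed to compound for 60 hours before readout; potency for loss of cell viability measured by luminescence.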 The assay is classed as functional.
Assay [8] deals with Female germline-specific tumor suppressor gld-1 (Caenorhabditis elegans, UniProt Q17339). As to the kind of experiment: blockers of GLD-1/TGE RNA complex formation – biochemical, fluorescence polarization, C. elegans, dose response (AID 2802).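 Also: fluorescence polarization of labeled TGE RNA bound by purified gld-1 protein.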
In the next assay the test system is Vero. The experiment in a line: cells. The assay is classed as functional. Particulars: Chlorocebus sabaeus.
Another assay concerns the target T3, Bcl-2-related protein A1 (Mus musculus, UniProt Q07440).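 Also: confirmatory dose–response counterscreen on Bfl-1, used to check hits from a UBC13 polyubiquitin inhibitor campaign.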
T3 sequence (Q07440 whole entry): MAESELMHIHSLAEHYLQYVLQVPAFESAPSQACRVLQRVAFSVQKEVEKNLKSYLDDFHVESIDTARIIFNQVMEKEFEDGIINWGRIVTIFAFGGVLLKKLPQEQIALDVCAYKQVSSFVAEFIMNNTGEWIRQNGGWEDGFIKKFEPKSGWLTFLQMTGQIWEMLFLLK
The assay is classed as functional.

Assay [9] deals with T2, Ubiquitin-conjugating enzyme E2 N. The assay is classed as functional. This is another data set of the same source.
Assay [10] is described as follows: viability of HCT116 lacking mutant beta-catenin – cell-based, human colon tumor, dose response (AID 1045).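 Also: HCT116 colon tumor cells with beta catenin knocked out; cells exposed to compound for 60 hours.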 The assay is classed as functional.
Assay [11] is described as follows: DRD fibroblast viability loss – cell-based, non-viral oncogenic, luminescence, dose response (AID 1934). In kind it is functional. Particulars: Homo sapiens.
Assay [12] deals with BJ. The experiment in a line: cells. The assay is classed as functional, cell-based. To be noted: Homo sapiens.
Assay [13] relates to BJ. The experiment in a line: BJ-TERT fibroblast viability loss – cell-based, RAS-independent, luminescence, dose response (AID 1933). Particulars: Homo sapiens. In kind it is functional.
For assay [14], the target named is Envelope glycoprotein gp160 (Human immunodeficiency virus 1, UniProt Q6QLK5). As to the kind of experiment: cell-free HIV fusion peptide-binding blockers – biochemical, uHTS, fluorescence dequenching, […] (AID 1986).
Assay [15] has as its system BJ. As to the kind of experiment: BJ-TERT-LT-ST fibroblast viability loss – cell-based, RAS-independent, luminescence, dose response (AID 1935).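 Also: BJ fibroblasts immortalized with TERT plus LT and ST oncogenes.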 To be noted: Homo sapiens. In kind it is functional.
A further assay relates to HEK293. The experiment in a line: cells. Particulars: Homo sapiens.
The next assay concerns the target T4, Interleukin-8 (Homo sapiens, UniProt P10145).
T4 sequence (P10145 whole entry): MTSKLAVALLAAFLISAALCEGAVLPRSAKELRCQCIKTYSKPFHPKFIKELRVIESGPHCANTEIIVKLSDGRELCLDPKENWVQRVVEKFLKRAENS
The experiment in a line: SAR analysis of tumor necrosis factor alpha (TNF-alpha) induced IL-8 secretion in MCF-7/NOD1 cells. [Related pubchem assays (depositor defined):AID1575, AID2250, AID2260]. The assay is classed as functional, cell-based.

For the next assay, the target named is Tumor necrosis factor (Homo sapiens, UniProt P01375). The experiment in a line: analog potency on TNFa NF-kB signaling – cell-based, revised, SAR follow-up (AID 2337). The assay is classed as functional.
The target in another assay is Trypsin (Sus scrofa, UniProt P00761). The experiment in a line: trypsin protease activity blockade – biochemical, quenched peptide fluorescence, cherry-pick, selectivity assay for Rce1 protease inhibitor project, dose response (AID 488789).
Sequence of Trypsin (P00761 whole entry): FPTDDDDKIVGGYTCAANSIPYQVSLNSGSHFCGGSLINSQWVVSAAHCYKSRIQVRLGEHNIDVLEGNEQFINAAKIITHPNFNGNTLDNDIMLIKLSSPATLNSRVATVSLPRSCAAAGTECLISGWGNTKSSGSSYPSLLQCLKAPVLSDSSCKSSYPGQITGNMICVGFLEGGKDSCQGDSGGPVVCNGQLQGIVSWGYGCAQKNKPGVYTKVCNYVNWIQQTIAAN

Sequence of Tumor necrosis factor (P01375 whole entry): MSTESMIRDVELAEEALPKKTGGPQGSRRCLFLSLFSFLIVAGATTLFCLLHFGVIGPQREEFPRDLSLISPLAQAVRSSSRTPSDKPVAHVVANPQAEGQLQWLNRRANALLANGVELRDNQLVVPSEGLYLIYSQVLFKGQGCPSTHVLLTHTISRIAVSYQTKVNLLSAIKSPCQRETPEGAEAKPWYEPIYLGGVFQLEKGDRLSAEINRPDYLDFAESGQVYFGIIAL
Sequence of Envelope glycoprotein gp160 (Q6QLK5 whole entry, the tested form may be a part): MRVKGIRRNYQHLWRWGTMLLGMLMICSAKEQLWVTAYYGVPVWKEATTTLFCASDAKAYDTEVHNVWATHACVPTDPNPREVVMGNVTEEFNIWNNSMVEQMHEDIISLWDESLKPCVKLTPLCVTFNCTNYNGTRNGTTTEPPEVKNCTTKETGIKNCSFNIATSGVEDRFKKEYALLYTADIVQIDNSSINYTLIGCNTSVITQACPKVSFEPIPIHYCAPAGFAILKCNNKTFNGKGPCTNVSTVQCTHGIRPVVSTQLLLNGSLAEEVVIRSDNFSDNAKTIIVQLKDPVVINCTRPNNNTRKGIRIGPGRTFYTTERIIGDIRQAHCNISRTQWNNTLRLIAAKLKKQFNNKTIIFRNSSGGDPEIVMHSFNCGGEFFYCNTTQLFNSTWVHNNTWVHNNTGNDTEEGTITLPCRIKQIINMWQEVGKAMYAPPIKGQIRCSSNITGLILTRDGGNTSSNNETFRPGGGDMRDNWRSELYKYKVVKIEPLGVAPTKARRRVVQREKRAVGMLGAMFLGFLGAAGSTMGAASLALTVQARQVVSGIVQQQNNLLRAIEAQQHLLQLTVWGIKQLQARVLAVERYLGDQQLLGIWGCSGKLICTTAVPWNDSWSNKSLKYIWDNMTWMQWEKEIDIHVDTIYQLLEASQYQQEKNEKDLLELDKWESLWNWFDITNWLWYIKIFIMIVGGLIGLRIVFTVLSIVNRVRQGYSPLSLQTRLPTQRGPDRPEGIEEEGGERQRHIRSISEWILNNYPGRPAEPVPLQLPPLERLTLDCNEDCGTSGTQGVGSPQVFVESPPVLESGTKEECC
Sequence of Female germline-specific tumor suppressor gld-1 (Q17339 whole entry): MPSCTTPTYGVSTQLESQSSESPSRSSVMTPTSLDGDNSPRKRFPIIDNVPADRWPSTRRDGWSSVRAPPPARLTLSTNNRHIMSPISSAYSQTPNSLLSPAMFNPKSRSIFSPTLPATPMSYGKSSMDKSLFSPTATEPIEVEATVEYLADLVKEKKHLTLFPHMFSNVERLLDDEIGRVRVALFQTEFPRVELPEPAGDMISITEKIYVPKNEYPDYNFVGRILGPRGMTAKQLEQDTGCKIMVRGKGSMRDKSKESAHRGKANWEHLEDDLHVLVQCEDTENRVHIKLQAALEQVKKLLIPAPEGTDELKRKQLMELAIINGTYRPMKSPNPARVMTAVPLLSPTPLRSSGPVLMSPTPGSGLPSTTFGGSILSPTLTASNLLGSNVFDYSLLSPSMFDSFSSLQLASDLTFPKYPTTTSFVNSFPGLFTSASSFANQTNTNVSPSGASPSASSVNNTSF
Sequence of Protein Rev (P04618 whole entry): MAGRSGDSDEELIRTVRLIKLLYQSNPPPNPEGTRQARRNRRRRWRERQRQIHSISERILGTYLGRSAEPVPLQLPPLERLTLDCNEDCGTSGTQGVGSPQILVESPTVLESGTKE

As to `Cc1nn(C)c(Sc2ccccn2)c1[N+](=O)[O-]`, the EC50 in [1] is > 195 µM (inactive); in [2], > 195 µM (not active); in assay [3], > 195 µM (not active); in assay [4] it was 88.4 µM (active); in the assay on H4, > 120 µM (not active); in assay [5], 1.7 µM (active).
Regarding `Cc1ccc(NC(=O)C[S+]([O-])CC(=O)NCC2CCCO2)cc1` (centres undefined), on Coagulation factor XII, the IC50 is > 50 µM (inactive).
Take `CN1CC2=Cc3ccccc3OC23Oc2ccccc2C=C3C1`: the IC50 in assay [6] is 3.5 µM (active); on Protein Rev, > 75.4 µM (not active); in assay [8] it was > 59.6 µM (inactive); on Bcl-2-related protein A1, > 20 µM (inactive); in [9], 2.55 µM (active). Further, the EC50 in [7] was 25 µM (active); in [10], 23 µM (active). In addition, the CC50 in the assay with Vero was 18.9 µM (active).
Turning to `O=C(O)CN1C(=O)/C(=C\c2cn(-c3ccccc3)nc2-c2ccccc2)SC1=S`, the EC50 in assay [11] is 41.4 µM (active); in the assay on BJ [12] it was > 150 µM (not active); in the assay on BJ [13], 31.1 µM (active); with BJ [15], > 150 µM (not active). Also, the IC50 in assay [14] is > 99 µM (inactive).
For the compound `Nc1nc2ccccc2n1S(=O)(=O)c1ccc([N+](=O)[O-])cc1`, the figures for the IC50 in the assay with HEK293, at Interleukin-8 and on Tumor necrosis factor were > 20 µM (inactive), > 5 µM (inactive) and > 20 µM (inactive), respectively.
On to `COc1cccc(-c2ccc(-c3noc(-c4ccccc4F)n3)c(OC)n2)c1`, for which, on Trypsin, the AC50 is 14.3 µM (active).
